The results in this text go back to patent US9796674B2, “Benzyl urea derivatives for activating TGF-beta signaling” (THE BOARD OF TRUSTEES OF THE LELAND STANFORD JUNIOR …, priority 2013, dated 2017).

Data set [1] in a line: Repeat dose range finding toxicity study in APP751LonSwe transgenic mice. In kind it is in vivo. To be noted: both sexes, APP751LonSwe transgenic, C57Bl/6 background, mouse, in vivo; oral, 3 times per week for 2 weeks; read-out: maximum tolerated dose (MTD). As to the method:
(§1) Determination of the maximum tolerated dose of SRI-011381 in APP transgenic mice on a C57Bl/6 genetic background: A repeat dose range finding toxicity study was also performed in APP751^LonSwe transgenic mice to select doses for evaluation in the efficacy study. Compound SRI-011381 was dissolved in a vehicle containing 15% solutol and 85% water. The formulated compound was administered orally to APP751^LonSwe transgenic mice at 0 (vehicle only), 10, 30, 60, or 100 mg/kg of body weight 3 times a week for 2 weeks (this is the regimen intended to be used for the preclinical treatment study in these mice). Five mice (3 male and 2 female) were used for each dosage group. The starting ages of the mice ranged from 4.4 to 6.1 months. Serum and whole blood samples were collected at the end of the study and subjected to clinical chemistry and hematology analysis.

Data set [2] concerns APP751LonSwe transgenic mice. The data set is described as above. In kind it is in vivo. To be noted: oral 10, 30, 60, or 100 mg/kg 3 times a week for 2 weeks. How it is done: as §1
Data set [3] has as its system CYPs 1A2, 2B6, 2C9, 2C19, 2D6, 3A4. Put plainly: CYP inhibition in human liver microsomes. To be noted: 1 and 10 μM, significant = >30% reduction in activity. In kind it is in vitro ADME. The text has this: CYP Inhibition: SRI-011381 was screened for CYP inhibition, an indicator of potential drug interactions. […] Thus, this compound is unlikely to cause clinically relevant interactions due to effects on co-administered drugs metabolized by these hepatic enzymes.
Drug Interactions (GYP inhibition): GYPs are major enzymes involved in drug metabolism and this assay is used to screen the inhibitory potential of test compounds on in vitro CYP activity, and help predict potential drug interactions due to inhibition of metabolism of one drug by another. This assay was performed by incubating test compounds with human liver microsomes and model CYP substrates (i.e., phenacetin (CYP1A2), bupropion (CYP2B6), diclofenac (CYP2C9), mephenytoin (CYP2C19), bufuralol (CYP2D6), testosterone (CYP3A4), and midazolam (CYP3A4)). Control incubations containing compounds known to inhibit specific CYPs were also included and incubated in the same manner as the test compounds (i.e., furafylline (CYP1A2), thioTEPA (CYP2B6), sulfaphenazole (CYP2C9), tranylcypromine (CYP2C19), quinidine (CYP2D6), and ketoconazole (CYP3A4)). The data is expressed as ‘% of control’, where the controls consist of the model substrates incubated with microsomes (no test compounds or inhibitors).
For orientation: Microsomes from liver hold many membrane-bound enzymes, among them those of drug oxidation.

Data set [4] can be described thus: PAMPA-BBB permeability assay. In kind it is in vitro ADME. As to the method: Permeability Assays: PAMPA screens, both for absorption from the gut and through blood brain barrier, were used as a first tier screen for this program. SRI-011381 was evaluated in the double sink assay format and the sum of the permeability coefficients at three pH values (7.4, 6.2, 5.0) was calculated (Pe) to be 781×10^−6 cm/s, which is consistent with an orally available compound.
Permeability PAMPA: The PAMPA assay was used to predict oral bioavailability of compounds. The PAMPA determines the permeability of compounds across a biological membrane using a synthetic lipid membrane and detection by UV absorbance. […] The PAMPA-BBB assay was performed, to predict permeability to the blood brain barrier, as an aqueous assay and as a co-solvent assay. In this assay the composition of the lipid membrane included brain-derived lipids, mimicking the BBB membrane.
On the technique in general: The PAMPA barrier holds no transporters, so it reflects passive diffusion.

A short description of data set [5]: Dose escalation and 14-day MTD study in female FVB mice. In kind it is in vivo. To be noted: female, FVB, mouse, in vivo; daily oral dose for 14 days. How it is done: In Vivo Range Finding Toxicity Studies in Mice and Rats: Dose escalation and 14-day MTD study of SRI-011381 and SRI-011382 in female FVB mice: The objectives of this study were to determine the maximum tolerated dose (MTD) and a no observable adverse effect level (NOAEL) in female FVB mice following a daily oral dose administration for 14 consecutive days. An initial dose escalation was performed with intraperitoneal (ip), oral (po), and intravenous (iv) dose routes for a single-dose MTD of SRI-011381 and SRI-011382.
Subsequently, three dose levels (10, 30, and 75 mg/kg) and a vehicle control group were used in the 14-day oral dose administration to determine the MTD and NOAEL based on changes in bodyweight, clinical observations, serum chemistry, hematology and gross organ physiology in 5 female mice per treatment group.
The objectives of this study were to determine maximum tolerated dose (MTD) and a no observable adverse effect level (NOAEL) in female FVB mice following a daily oral dose administration for 14 consecutive days. After a dose escalation single dose study with doses up to 400 mg/kg, three dose levels were selected for the repeat dose study, 10, 30 and 75 mg/kg, administered […]. The MTD is the maximum dose administered that results in less than 10% body weight loss compared to controls and no other dose limiting adverse effects (e.g. clinical pathology).

As to `O=C(NC1CCCCC1)N(Cc1ccccc1)CC1CCNCC1` [SRI-011381, 1-Benzyl-3-cyclohexyl-1-(piperidin-4-ylmethyl)urea], in data set [1], the MTD at 2 weeks is above 100 mg/kg. Further, in data set [2], the body weight result was “no significant differences in body weight” and the “clinical chemistry or hematology parameters” value is listed as “no statistically significant changes”. Also, the CYP inhibition entry in data set [3] is reported as “did not inhibit any CYP activity significantly”. For the same compound, in data set [4], the “PAMPA-BBB Pe” value is listed as 4.2±2.2 ×10^−6 cm/s. Besides, the Papp in data set [4] (PAMPA, read-out: PAMPA-BBB Pe) came to 4.2 ± 2.2 ×10⁻⁶ cm/s. Also, the NOAEL at 14 days in data set [5] is below 30 mg/kg.

By MTD is commonly meant the highest dose tested that stayed within the study's limit of toxicity. As usually defined, the NOAEL is the highest dose or exposure tested at which no adverse effect was seen.
